Assay results published in patent US10760050B2, “Method for producing retinal pigment epithelial cells” (SUMITOMO CHEMICAL COMPANY, LIMITED, priority 2013, dated 2020).

B1: recombinant human BMP4 protein: BMP protein, a substance acting on the BMP signal transduction pathway (protein, UniProt P12644 293-408, looked up)
Bone morphogenetic protein 4: SPKHHSQRARKKNKNCRRHSLYVDFSDVGWNDWIVAPPGYQAFYCHGDCPFPLADHLNSTNHAIVQTLVNSVNSSIPKACCVPTELSAISMLYLDEYDKVVLKNYQEMVVEGCGCR

Test system: Human ES cells (KhES-1-derived)
Assay: Adhesion culture of cells dispersed from human ES cell-derived aggregates with added factors; level of epithelial formation observed under a microscope (Example 5)
Type: cell-based
Details: observed at day 40, compared to the control free of the addition
Experimental: Human ES cells (KhES-1-derived) were cultured according to the methods described in “Ueno, M. et al. PNAS 2006, 103(25), 9554-9559” and “Watanabe, K. et al. Nat Biotech 2007, 25, 681-686”. As the medium, a medium obtained by adding 20% KSR KNOCKOUT™ Serum Replacement; Invitrogen), 0.1 mM 2-mercaptoethanol, 2 mM L-glutamine, 1× non-essential amino acid, 5 ng/ml bFGF to DMEM/F12 medium (Sigma) was used. The cultured ES cells were dispersed into single cells using TrypLE Express (Invitrogen), and the above-mentioned cultured ES cells were suspended in 100 μl of a serum-free medium at 1.2×10^4 cells per one well of a non-cell adhesive 96 well culture plate (sumilon spheroid plates, SUMITOMO BAKELITE Co., Ltd.) to allow for rapid formation of aggregates and subjected to culture at 37° C., 5% CO2. As the serum-free medium therefor, a serum-free medium obtained by adding 10% KSR, 450 μM 1-monothioglycerol, 1× Chemically defined lipid concentrate, 20 μM Y27632 to a 1:1 mixture of F-12 medium and IMDM medium was used. At day 3 from the start of the floating culture, BMP4 was added al a concentration 1.5 nM, and floating culture was continued. A half amount of the culture medium in the well was exchanged every 3 days with the above-mentioned medium not supplemented with a substance acting on the BMP signal transduction pathway. […]

| Molecule | level of epithelial formation (pigmentation of retinal pigment epithelial cells) (3 μM added at day 24 from the start of the floating culture, FIG. 5B) | level of epithelial formation (uniformity of epithelium) (1 nM added at day 24, FIG. 5E) |
| --- | --- | --- |
| Cc1c[nH]c(-c2cnc(NCCNc3ccc(C#N)cn3)nc2-c2ccc(Cl)cc2Cl)n1 [CHIR99021] | differentiated into darker retinal pigment epithelial cells |  |
| B1 |  | more uniform epithelium |
